Assay: gradient 5% acetonitrile 3 min, to 50% in 2 min, to 85% in 15 min, held 3 min, 100 µL/min
Details: column: Zorbax Extend-C18 2.1 x 50 mm; eluents: water / acetonitrile, 0.1% formic acid
Outline: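 Standards, all pure, were combined into mixtures of ~100 molecules and run at 100 μL/min on a Zorbax Extend-C18 column (2.1 × 50 mm, 1.8 μm) with water and acetonitrile, each containing 0.1% formic acid. A coupled quadrupole time-of-flight mass spectrometer operated in positive and negative ionization mode. Retention time values come from computationally picked adduct peaks, each inspected manually.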

Row | RP-LC retention time [s] | SMILES
1 | 719 | CC1=C(c2ccccc2)S(=O)(=O)N=C1N1CCCN(C(=O)c2ccco2)CC1
2 | 556 | CN(C)CCNC(=O)c1cccc2[nH]c(-c3ccncc3)nc12
3 | 564 | O=C1CCC(C(=O)N2CCCn3ccnc3C2C2CCCC2)=NN1 (stereo not drawn)
4 | 575 | O=C1CCCCC(C(=O)N2CCOCC2)N1 (stereo not drawn)
5 | 670 | CCc1c(C)nc2ncnn2c1NC(C)C
6 | 919 | CCN(C(=O)c1cc2c(=O)oc3ccccc3c2n1C)c1ccccc1
7 | 973 | CCc1nn2c(CNS(=O)(=O)c3cccc(C)c3)c(-c3ccccc3)nc2s1
8 | 649 | COCCNC(=O)c1ccc2c(c1)CCCN2S(C)(=O)=O
9 | 682 | COc1ccc(OC)c(NC(=O)c2cc(NC(=O)C3CCC3)cc3nc(C)ccc23)c1
10 | 976 | COCCc1noc(-c2nc(-c3ccc(OC)cc3)no2)n1
11 | 757 | CCC1CN(C(=O)N2CCC(C(=O)NCCCOC)CC2)c2cc(C)ccc2O1 (stereo not drawn)
12 | 1280 | Cc1ccc(C)c(NC(=O)C2CCCN(c3nc4c(s3)c(C)nn4-c3cccc(F)c3)C2)c1 (stereo not drawn)
13 | 541 | CN(C)C(=O)c1cccc(C(=O)N(C)C)n1
14 | 613 | O=C(NCCCOC(=O)c1ccccc1)c1ccncc1
15 | 694 | COc1ccc(OC)c(NC(=O)C2CCN(c3cc(N4CCSCC4)ncn3)CC2)c1
16 | 654 | O=C(c1ccnnc1)N1C[C@@H](COCC2CC2)[C@H](c2ccccn2)C1
17 | 1250 | Cc1cccc(-c2nnc(-c3ccc(Cl)c(S(=O)(=O)N4CCCCC4)c3)o2)c1
18 | 696 | COc1ccc(Cl)cc1NC(=O)N1CCN(CCn2c(C(F)(F)F)nc3cccnc32)CC1
19 | 672 | Cc1ccc2c(Nc3ccc(C)c(C)c3)c(C(=O)N3CCCCC3C)cnc2n1 (stereo not drawn)

Row | RP-LC retention time [s] | SMILES
20 | 960 | O=C(NCCC1CCN(S(=O)(=O)c2ccccc2)CC1)Nc1cc(F)ccc1F
21 | 803 | Cc1ccc(C)c(NC(=O)c2c(C)oc3nc(C)nc(N4CCOCC4)c23)c1
22 | 742 | O=C(NCc1csc(C2CCCN(C(=O)c3c(F)cccc3F)C2)n1)C1CCC1 (stereo not drawn)
23 | 599 | O=C(NCc1ccc2c(c1)OCO2)C1CCCN(C(=O)c2cc(-c3ccncc3)n[nH]2)C1 (stereo not drawn)
24 | 792 | O=C1CCN(C(=O)COc2ccc(Cl)cc2Cl)c2ccccc2N1
25 | 565 | CC(C)CCN1CCC(N2CCN(CCc3ccccc3)CC2)C1=O (stereo not drawn)
26 | 661 | CCn1nc(C)c(CCNC(=O)c2ccc3c(c2)N(C)C(=O)C2CCCCN32)c1C (stereo not drawn)
27 | 580 | OC(COCc1ccc(Cl)cc1)CN1CCCCC1 (stereo not drawn)
28 | 796 | Cc1noc(C2CCCCN2C(=O)c2cc(-c3ccccc3)n[nH]2)n1 (stereo not drawn)
29 | 923 | Cc1cc(N2CCC(NC(=O)Nc3ccc(Cl)cc3F)C2=O)ccc1F (stereo not drawn)
30 | 774 | Cc1cccc(N2CCN(c3cc(C(=O)O)c4cc(NC(=O)C(C)(C)C)ccc4n3)CC2)c1C
31 | 622 | Cc1nn(C(C)C(=O)N2CCC(N3CCCCC3)CC2)c(=O)c2nn(-c3ccccc3)c(C)c12 (stereo not drawn)
32 | 641 | COc1ccc(C2(C(=O)N3CC(F)(F)C[C@H]3CN3CCN(C)CC3)CC2)cc1
33 | 852 | Cc1cccc(N2C(=O)NC3CC2(C)Oc2ccccc23)c1 (stereo not drawn)
34 | 693 | CS(=O)(=O)N1CC(F)(F)C[C@H]1c1nc(-c2ccncc2)no1
35 | 861 | Cc1cccc(NC(=O)Cn2c(C)nc3onc(C)c3c2=O)c1C
36 | 656 | O=C(CCC1CCN(c2cc(NC3CC3)ncn2)CC1)NCCc1cccs1
37 | 849 | Cc1ccc(CN2CCN(C3CCN(C(=O)Nc4ccc(F)c(Cl)c4)CC3)C(=O)C2=O)cc1
38 | 796 | CCCOC(=O)C1=CN(C)S(=O)(=O)N=C1C
